From US11427548B2 (Arvinas Operations, Inc., priority 2015, dated 2022)
Where two headings read alike, the source gives them in different places. Blank lines part the entries; values can stand above or below the compound they belong to.

Target: T1, Androgen Receptor (Homo sapiens, UniProt P10275)
T1 construct: endogenous in cells; host or cells: VCaP cells
T1 sequence (P10275 1-920): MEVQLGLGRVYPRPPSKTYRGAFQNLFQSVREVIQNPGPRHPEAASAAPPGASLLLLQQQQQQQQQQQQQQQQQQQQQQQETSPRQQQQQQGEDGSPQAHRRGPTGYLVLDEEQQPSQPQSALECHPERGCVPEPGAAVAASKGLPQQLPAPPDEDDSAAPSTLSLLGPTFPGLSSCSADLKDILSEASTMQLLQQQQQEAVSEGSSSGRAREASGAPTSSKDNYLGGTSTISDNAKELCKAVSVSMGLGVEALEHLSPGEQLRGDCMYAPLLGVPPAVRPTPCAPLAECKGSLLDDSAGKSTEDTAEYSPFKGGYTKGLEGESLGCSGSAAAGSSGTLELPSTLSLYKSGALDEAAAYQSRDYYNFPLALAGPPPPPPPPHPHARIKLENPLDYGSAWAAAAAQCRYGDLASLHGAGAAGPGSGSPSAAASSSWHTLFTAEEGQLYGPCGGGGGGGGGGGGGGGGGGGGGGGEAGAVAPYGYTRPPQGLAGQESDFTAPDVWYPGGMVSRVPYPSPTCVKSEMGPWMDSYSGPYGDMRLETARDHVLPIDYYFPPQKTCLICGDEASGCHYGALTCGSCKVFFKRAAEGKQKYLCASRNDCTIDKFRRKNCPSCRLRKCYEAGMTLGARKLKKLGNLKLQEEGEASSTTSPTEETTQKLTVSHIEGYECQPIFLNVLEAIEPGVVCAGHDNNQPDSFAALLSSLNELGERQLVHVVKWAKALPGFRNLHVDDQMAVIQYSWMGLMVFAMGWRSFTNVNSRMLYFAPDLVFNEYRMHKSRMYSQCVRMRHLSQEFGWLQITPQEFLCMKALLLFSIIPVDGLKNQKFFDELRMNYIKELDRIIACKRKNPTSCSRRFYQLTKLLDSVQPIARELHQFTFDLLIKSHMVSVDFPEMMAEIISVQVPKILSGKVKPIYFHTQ
Assay: Androgen Receptor ELISA assay (PathScan AR ELISA) in VCaP cells: AR degradation, Dmax and DC50
Type: cell-based
How it was run: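 VCaP cells, 30,000/well, grown ≥3 days in phenol red-free RPMI with 5% charcoal-stripped FBS; compound added in 0.1% DMSO with 0.1 nM R1881, 7 half-log doses, 24 h. Lysate AR quantified by PathScan sandwich ELISA, HRP/TMB read at 450 nm, giving DC50 and Dmax.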

[1] = VCaP cells; Table 36; read-out: VCaP DC50
[2] = VCaP cells; Table 35; read-out: VCaP DC50
[3] = VCaP, VCaP cells; Table 35; read-out: VCaP Dmax (%)
[4] = VCaP, VCaP cells; Table 36; read-out: VCaP Dmax (%)
[5] = VCaP cells; Table 34; read-out: VCaP DC50
[6] = VCaP, VCaP cells; Table 34; read-out: VCaP Dmax (%)

DC50 [1]: < 0.05 µM
Dmax (VCaP, read-out: VCaP Dmax (%), VCaP cells; Table 36): > 71%
SMILES: Cc1ncsc1-c1ccc([C@H](C)NC(=O)[C@@H]2C[C@@H](O)CN2C(=O)[C@@H](c2cc(CCCCN3CCN(c4ccc(C(=O)N[C@H]5C(C)(C)[C@H](Oc6ccc(C#N)c(Cl)c6)C5(C)C)cn4)CC3)no2)C(C)C)cc1 [Example 831, N-((1r,3r)-3-(3-chloro-4-cyanophenoxy)-2,2,4,4-tetramethylcyclobutyl)-6-(4-(4-(5-((R)-1-((2S, 4R)-4-hydroxy-2-(((S)-1-(4-(4-methylthiazol-5-yl)phenyl)ethyl)carbamoyl)pyrrolidin-1-yl)-3-methyl-1-oxobutan-2-yl)isoxazol-3-yl)butyl)piperazin-1-yl)nicotinamide]

SMILES: Cc1ncsc1-c1ccc([C@H](C)NC(=O)C2C[C@@H](O)CN2C(=O)C(NC(=O)COCC(F)(F)C(F)(F)C(F)(F)COc2ccc(C(=O)N[C@H]3C(C)(C)[C@H](Oc4ccc(C#N)c(Cl)c4)C3(C)C)cc2)C(C)(C)C)cc1 (stereo partly drawn) [Example 688, (2S,4R)-1-((S)-2-(2-((5-(4-(((1r,3r)-3-(3-chloro-4-cyanophenoxy)-2,2,4,4-tetramethylcyclobutyl)carbamoyl)phenoxy)-2,2,3,3,4,4-hexafluoropentyl)oxy)acetamido)-3,3-diemthylbutanoyl)-4-hydroxy-N-((S)-1-(4-(4-methylthiazol-5-yl)phenyl)ethyl)pyrrolidine-2-carboxamide]
Dmax (VCaP, read-out: VCaP Dmax (%)): > 71%
DC50 (read-out: VCaP DC50; VCaP cells; Table 36): < 0.05 µM

DC50 [2]: < 0.05 µM
Dmax [3]: > 71%
SMILES: CC(C)(C)[C@H](NC(=O)COCCOc1ccc(-c2ccc(C(=O)N[C@H]3C(C)(C)[C@H](Oc4ccc(C#N)c(Cl)c4)C3(C)C)cc2)cc1)C(=O)N1C[C@H](O)C[C@H]1C(=O)NCc1ccc(C#N)cc1 [Example 550]

DC50 [1]: < 0.05 µM
Dmax [4]: > 71%
SMILES: Cc1ncsc1-c1ccc([C@H](C)NC(=O)[C@@H]2C[C@H](O)CN2C(=O)[C@@H](NC(=O)COCCN2CCN(c3ccc(C(=O)N[C@H]4C(C)(C)[C@H](Oc5ccc(C#N)c(Cl)c5)C4(C)C)cn3)CC2)C(C)(C)C)cc1 (stereo in doubt) [Example 608, N-((1r,3r)-3-(3-chloro-4-cyanophenoxy)-2,2,4,4-tetramethylcyclobutyl)-6-(4-(2-(2-(((S)-1-((2S,4R)-4-hydroxy-2-(((S)-1-(4-(4-methylthiazol-5-yl)phenyl)ethyl)carbamoyl)pyrrolidin-1-yl)-3,3-dimethyl-1-oxobutan-2-yl)amino)-2-oxoethoxy)ethyl)piperazin-1-yl)nicotinamide]

SMILES: Cc1ncsc1-c1ccc(CNC(=O)[C@@H]2C[C@@H](O)CN2C(=O)[C@@H](NC(=O)COC(C)CCCOc2ccc(-c3ccc(N4C(=S)N(c5ccc(C#N)c(C(F)(F)F)c5)C(=O)C4(C)C)cc3)cc2)C(C)(C)C)cc1 (stereo in doubt) [Example 148, (2S,4R)-1-[(2S)-2-(2-{[(2R)-5-[4-(4-{3-[4-cyano-3-(trifluoromethyl)phenyl]-5,5-dimethyl-4-oxo-2-sulfanylideneimidazolidin-1-yl}phenyl)phenoxy]pentan-2-yl]oxy}acetamido)-3,3-dimethylbutanoyl]-4-hydroxy-N-{[4-(4-methyl-1,3-thiazol-5-yl)phenyl]methyl}pyrrolidine-2-carboxamide]
Dmax (VCaP, read-out: VCaP Dmax (%)): > 71%
DC50 (read-out: VCaP DC50; concentration that caused 50% Androgen Receptor degradation, VCaP cells (Table 32)): < 0.05 µM

DC50 [2]: > 0.501 µM
Dmax [3]: 26 to 50%
SMILES: Cc1ncsc1-c1ccc([C@H](C)NC(=O)[C@@H]2C[C@@H](O)CN2C(=O)[C@@H](NC(=O)COCCCCCNc2ccc(C(=O)N[C@H]3C(C)(C)[C@H](Oc4ccc(C#N)c(Cl)c4)C3(C)C)c(F)c2)C(C)(C)C)cc1 [Example 495]

DC50 [1]: > 0.501 µM
Dmax [4]: < 25%
SMILES: Cc1ncsc1-c1ccc([C@H](C)NC(=O)[C@@H]2CC(O)CN2C(=O)[C@H](C(C)C)N2Cc3ccc(OCCN4CCN(c5ccc(C(=O)N[C@H]6C(C)(C)[C@H](Oc7ccc(C#N)c(Cl)c7)C6(C)C)cn5)CC4)cc3C2=O)cc1 (stereo partly drawn) [Example 856, N-((1r,3r)-3-(3-chloro-4-cyanophenoxy)-2,2,4,4-tetramethylcyclobutyl)-6-(4-(2-((2-((S)-1-((2S, 4R)-4-hydroxy-2-(((S)-1-(4-(4-methylthiazol-5-yl)phenyl)ethyl)carbamoyl)pyrrolidin-1-yl)-3-methyl-1-oxobutan-2-yl)-3-oxoisoindolin-5-yl)oxy)ethyl)piperazin-1-yl)nicotinamide]

DC50 [5]: < 0.05 µM
Dmax [6]: > 71%
SMILES: CC(C)(C)[C@H](NC(=O)COc1ccc(OCCOc2ccc(N3C(=S)N(c4cnc(C#N)c(C(F)(F)F)c4)C(=O)C3(C)C)cc2)cc1)C(=O)N1C[C@H](O)C[C@H]1C(=O)NCc1ccc(-c2cnco2)cc1 [Example 371]

DC50 [1]: > 0.501 µM
Dmax [4]: 26 to 50%
SMILES: Cc1nc(O[C@H]2C(C)(C)[C@H](NC(=O)c3ccc(N4CCN(CCCN5CCN(CC(=O)O[C@H](C(=O)N6C[C@H](O)C[C@H]6C(=O)N[C@@H](C)c6ccc(-c7scnc7C)cc6)C(C)(C)C)CC5)CC4)nc3)C2(C)C)ccc1C#N [Example 716, N-((1r,3r)-3-((5-cyano-6-methylpyridin-2-yl)oxy)-2,2,4,4-tetramethylcyclobutyl)-6-(4-(3-(4-(2-(((S)-1-((2S,4R)-4-hydroxy-2-(((S)-1-(4-(4-methylthiazol-5-yl)phenyl)ethyl)carbam-oyl)pyrrolidin-1-yl)-3,3-dimethyl-1-oxobutan-2-yl)amino)-2-oxoethyl)piperazin-1-yl)propyl)piperazin-1-yl)nicotinamdie]

DC50 [1]: > 0.501 µM
Dmax [4]: < 25%
SMILES: CC(C)[C@@H](C(=O)N1C[C@H](O)C[C@H]1C(=O)NCc1ccc(Cl)cc1OCCN1CCN(c2ccc(C(=O)N[C@H]3C(C)(C)[C@H](Oc4ccc(C#N)c(Cl)c4)C3(C)C)cn2)CC1)N1Cc2ccccc2C1=O [Example 743, 6-(4-(2-(5-chloro-2-(((2S,4R)-4-hydroxy-1-((S)-3-methyl-2-(1-oxoisoindolin-2-yl)butanoyl)pyrrolidine-2-carboxamido)methyl)phenoxy)ethyl)piperazin-1-yl)-N-((1r,3r)-3-(3-chloro-4-cyanophenoxy)-2,2,4,4-tetramethylcyclobutyl) nicotinamide]

SMILES: Cc1ncsc1-c1ccc([C@@H](C)NC(=O)[C@@H]2C[C@@H](O)CN2C(=O)[C@@H](NC(=O)COCCCCNc2ccc(C(=O)N[C@H]3C(C)(C)[C@H](Oc4ccc(C#N)c(Cl)c4)C3(C)C)cc2)C(C)(C)C)cc1 [Example 178, (2S,4R)-1-[(2S)-3,3-dimethyl-2-(2-{4-[(4-{[trans-3-(3-chloro-4-cyanophenoxy)-2,2,4,4-tetramethylcyclobutyl]carbamoyl}phenyl)amino]butoxy}acetamido)butanoyl]-4-hydroxy-N-[(1R)-1-[4-(4-methyl-1,3-thiazol-5-yl)phenyl]ethyl]pyrrolidine-2-carboxamide]
Dmax (VCaP, highest percentage of Androgen Receptor degradation observed, VCaP cells (Table 32); read-out: VCaP Dmax (%)): 26 to 50%
DC50 (concentration that caused 50% Androgen Receptor degradation, VCaP cells (Table 32); read-out: VCaP DC50): < 0.05 µM

DC50 [2]: < 0.05 µM
Dmax [3]: 51 to 70%
SMILES: COc1ccc(CNC(=O)[C@@H]2C[C@@H](O)CN2C(=O)[C@@H](NC(=O)COCCCCCNc2ccc(C(=O)N[C@H]3C(C)(C)[C@H](Oc4ccc(C#N)c(Cl)c4)C3(C)C)cc2)C(C)(C)C)cc1 [Example 522]

DC50 [5]: < 0.05 µM
Dmax [6]: 51 to 70%
SMILES: CC(C)(C)[C@H](NC(=O)COCCCCOCCn1cc(C(=O)N[C@H]2C(C)(C)[C@H](Oc3ccc(C#N)c(Cl)c3)C2(C)C)cn1)C(=O)N1C[C@H](O)C[C@H]1C(=O)NCc1ccc(-c2cncs2)cc1 [Example 347]

SMILES: Cc1ncsc1-c1ccc(CNC(=O)[C@@H]2C[C@@H](O)CN2C(=O)[C@@H](NC(=O)COCCCCOc2ccc(-c3ccc(N4C(=S)N(c5cnc(C#N)c(C(F)(F)F)c5)C(=O)C45CCC5)cc3)cc2)C(C)(C)C)cc1 [Example 199, (2S,4R)-1-[(2S)-2-(2-{4-[4-(4-{7-[6-cyano-5-(trifluoromethyl)pyridin-3-yl]-8-oxo-6-sulfanylidene-5,7-diazaspiro[3.4]octan-5-yl}phenyl)phenoxy]butoxy}acetamido)-3,3-dimethylbutanoyl]-4-hydroxy-N-{[4-(4-methyl-1,3-thiazol-5-yl)phenyl]methyl}pyrrolidine-2-carboxamide]
DC50 (VCaP cells; concentration that caused 50% Androgen Receptor degradation; read-out: VCaP DC50): < 0.05 µM
Dmax (VCaP, VCaP cells; highest percentage of Androgen Receptor degradation; read-out: VCaP Dmax (%)): 51 to 70%
